Positions count from the first letter of the chain named. Like-named read-outs stand apart in the source and are kept apart here.
Columns and labels:
recombinant AcerOBP11 = recombinant AcerOBP11 (Apis cerana, UniProt S5CRW7); assay: biochemical; type: binding
Procedure: (§1) The interactions were monitored by recording 1-NPN fluorescence upon addition of 1-NPN aliquots with excitation wavelength of 337 nm, and emission wavelength of 350–450 nm, where the slit was 5 nm. Titrations were carried out at 25°C with 1 μmol/L recombinant protein in PBS buffer. The fluorescence intensities at the maximum of emission wavelength (400~410 nm) were recorded to calculate Scatchard plots. The dissociation constant of the protein/1-NPN complex (K1−NPN) was calculated from Scatchard plots and applied in the equation below to estimate ligand binding affinity. All 23 ligands (1 mM) used in competition experiments were dissolved in spectrally pure grade methanol. Three independent measurements were taken for binding data.

[1] = target: T1, AcerOBP11m-Phe101 (Phe101Gly mutant) (Apis cerana, UniProt S5CRW7, F101G); assay: Fluorescence competitive binding assay with 1-NPN, mutant AcerOBP11m-Phe101; conditions: for change of KD compared with AcerOBP11-wt: AcerOBP11m-Phe101 vs wild-type
T1 sequence (S5CRW7 1-142 F101G): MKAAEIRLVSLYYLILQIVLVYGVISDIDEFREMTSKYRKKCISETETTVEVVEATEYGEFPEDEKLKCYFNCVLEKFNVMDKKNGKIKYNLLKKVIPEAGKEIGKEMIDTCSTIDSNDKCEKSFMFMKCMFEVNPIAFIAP
Procedure: as §1, with “Fluorescence experiments on AcerOBP11 with N-phenyl-1-naphthylamine (1-NPN) were carried out on a Shimadzu RF-5301 spectrofluorimeter using a quartz cuvette in a right-angle configuration. The interactions” for “The interactions”
(§2) In order to verify whether the predicted interaction sites played a role in the binding of AcerOBP11 protein with ligands, site-directed mutagenesis of the corresponding amino acid was carried out. The mutant primers were designed by a partial overlap method before synthesis. The plasmids of pET-32a/AcerOBP11 wild-type were mutated by using fast mutagenesis system kit (Transgen, CN) and then transformed into BL21 (DE3) competent cells. The mutant plasmids of target sites were confirmed by sequencing, and then the mutant proteins were obtained by the induction and purification in the same method as AcerOBP11 wild-type above. The secondary structure of purified AcerOBP11 recombinant protein mutants was also analyzed using circular dichroism (CD) spectrometry (815 type, Jasco, JP). The mutant proteins were used for competitive fluorescence experiments with the six candidate ligands chosen from the previous section. The target amino acids and binding mode of AcerOBP11 binding with candidate ligands were acquired by comparing the dissociation constant KD between wild-type and mutant AcerOBP11. Statistical analysis data (mean ± SE) of KD values for the same mutated amino acid site were also used as one-way analysis of variance (ANOVA) followed by a mean LSD test.

[2] = target: T2, AcerOBP11m-Ile97 (Ile97Gly mutant) (Apis cerana, UniProt S5CRW7, I97G); assay: Fluorescence competitive binding assay with 1-NPN, mutant AcerOBP11m-Ile97
T2 sequence (S5CRW7 1-142 I97G): T1 sequence (S5CRW7 1-142 F101G) with I97G, G101F
Procedure: as §1, with “Fluorescence experiments on AcerOBP11 with N-phenyl-1-naphthylamine (1-NPN) were carried out on a Shimadzu RF-5301 spectrofluorimeter using a quartz cuvette in a right-angle configuration. The interactions” for “The interactions”
as §2

[3] = target: T3, AcerOBP11m-Ile140 (Ile140Gly mutant) (Apis cerana, UniProt S5CRW7, I140G); assay: Fluorescence competitive binding assay with 1-NPN, mutant AcerOBP11m-Ile140
T3 sequence (S5CRW7 1-142 I140G): T1 sequence (S5CRW7 1-142 F101G) with G101F, I140G
Procedure: as §1, with “Fluorescence experiments on AcerOBP11 with N-phenyl-1-naphthylamine (1-NPN) were carried out on a Shimadzu RF-5301 spectrofluorimeter using a quartz cuvette in a right-angle configuration. The interactions” for “The interactions”
as §2

ASP2 = target: ASP2; design: method as in Li et al., 2013; conditions: ref Li et al., 2013; cited from earlier work
ASP1 = target: ASP1; design: method as in Weng et al., 2013; conditions: ref Weng et al., 2013; cited from earlier work
[4] = calculated from IC50, KD = [IC50]/(1+[1-NPN]/K1-NPN), Table 1, read-out: KD
[5] = displacement of 1-NPN, 1 μmol/L protein in PBS, 25°C, Table 1, read-out: [IC50]
[6] = KD, calculated from IC50, KD = [IC50]/(1+[1-NPN]/K1-NPN), Table 1
[7] = [IC50], AcerOBP11-wt, Table S4, mean ± SE
[8] = [IC50], displacement of 1-NPN, 1 μmol/L protein in PBS, 25°C, Table 1
[9] = AcerOBP11m-Phe101, Table S4, mean ± SE, read-out: KD
[10] = AcerOBP11m-Phe101, Table S4, mean ± SE, read-out: [IC50]
[11] = AcerOBP11m-Ile97, Table S4, mean ± SE, read-out: KD
[12] = AcerOBP11m-Ile97, Table S4, mean ± SE, read-out: [IC50]
[13] = AcerOBP11m-Ile140, Table S4, mean ± SE, read-out: KD
[14] = AcerOBP11m-Ile140, Table S4, mean ± SE, read-out: [IC50]
[15] = KD, AcerOBP11-wt, Table S4, mean ± SE

recombinant AcerOBP11, sequence (S5CRW7 entry or part of it): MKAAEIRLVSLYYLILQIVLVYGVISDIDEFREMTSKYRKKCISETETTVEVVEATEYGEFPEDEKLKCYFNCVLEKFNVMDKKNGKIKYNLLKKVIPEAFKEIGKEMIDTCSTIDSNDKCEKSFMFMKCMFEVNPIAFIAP

CC1CCC(C(C)C)C(O)C1 (racemic) [DL-Menthol]
IC50 (recombinant AcerOBP11): 26.2 µM
Kd (recombinant AcerOBP11): 4.34 µM

CC12CCC(CC1)C(C)(C)O2 [1,8-Cineole]
IC50 (recombinant AcerOBP11): 21.1 µM
Kd (recombinant AcerOBP11; [4]): 4.3 µM

CCCCCC(C)=O [2-Heptanone]
Kd (recombinant AcerOBP11; [4]): 4.32 µM
IC50 (recombinant AcerOBP11; [5]): 31.1 µM

Cc1ccc(C=O)cc1C [3,4-Dimethylbenzaldehyde]
Kd (recombinant AcerOBP11; [4]): 4.76 µM
IC50 (recombinant AcerOBP11; [5]): 36.7 µM

CC1=CCC2C(C1)C2(C)C (stereo not drawn) [3-Carene]
Kd (recombinant AcerOBP11; [4]): 9.79 µM

C=CCc1ccc(OC)c(OC)c1 [4-Allylveratrole]
Kd (recombinant AcerOBP11; [6]): 2.67 µM
IC50 (recombinant AcerOBP11; [7]): 21 ± 0.22 µM
IC50 (recombinant AcerOBP11; [8]): 16.8 µM
Kd [1, 9]: 4.84 ± 0.092 µM
IC50 [1, 10]: 20.1 ± 0.381 µM
change of KD compared with AcerOBP11-wt [1]: did not observe significant increases
Kd [2, 11]: 5.83 ± 0.06 µM
IC50 [2, 12]: 25.823 ± 0.022 µM
change of KD compared with AcerOBP11-wt ([2]; AcerOBP11m-Ile97 vs wild-type): significantly increased
Kd [3, 13]: 4.28 ± 0.279 µM
IC50 [3, 14]: 22.5 ± 1.46 µM

CC(=O)CCCCC/C=C/C(=O)O [9-ODA, (E)-9-oxo-2-decanoic acid]
Kd (recombinant AcerOBP11; [4]): 6.67 µM
IC50 (recombinant AcerOBP11; [5]): 36.9 µM
Kd (recombinant AcerOBP11; read-out: KD): < 10 µM

CCCCCCCCCCCCCCCC(=O)OCC [Ethyl palmitate]
Kd (recombinant AcerOBP11; [15]): 3.788 ± 0.012 µM
Kd (recombinant AcerOBP11; [6]): 3.82 µM
IC50 (recombinant AcerOBP11; [7]): 24.39 ± 0.076 µM
IC50 (recombinant AcerOBP11; [8]): 19.4 µM
Kd [1, 9]: 3.89 ± 0.143 µM
IC50 [1, 10]: 20.3 ± 0.747 µM
change of KD compared with AcerOBP11-wt [1]: did not observe significant increases
Kd [2, 11]: 1.86 ± 0.022 µM
IC50 [2, 12]: 6.61 ± 0.076 µM
Kd [3, 13]: 5.34 ± 0.167 µM
IC50 [3, 14]: 16.6 ± 0.52 µM

CC(C)=CCC/C(C)=C/CC/C(C)=C/CO [Farnesol]
Kd (recombinant AcerOBP11; [6]): 4.71 µM
IC50 (recombinant AcerOBP11; [7]): 20.6 ± 0.237 µM
IC50 (recombinant AcerOBP11; [8]): 32.2 µM
Kd [1, 9]: 3.14 ± 0.072 µM
IC50 [1, 10]: 17.8 ± 0.411 µM
Kd [2, 11]: 5.24 ± 0.069 µM
IC50 [2, 12]: 21.3 ± 0.237 µM
change of KD compared with AcerOBP11-wt ([2]; AcerOBP11m-Ile97 vs wild-type): significantly increased
Kd [3, 13]: 4.93 ± 0.133 µM
IC50 [3, 14]: 19.9 ± 0.536 µM

CC(C)=CCC/C(C)=C/CO [Geraniol]
Kd (recombinant AcerOBP11; [6]): 8.58 µM
IC50 (recombinant AcerOBP11; [8]): 39.9 µM

COC(=O)c1ccc(O)cc1 [HOB, methyl p-hydroxybenzoate]
Kd (recombinant AcerOBP11; KD): < 10 µM
Kd (recombinant AcerOBP11; [6]): 1.35 µM
IC50 (recombinant AcerOBP11; [7]): 8.31 ± 0.156 µM
IC50 (recombinant AcerOBP11; [8]): 8.33 µM
IC50 [1]: 6.257 ± 0.025 µM
Kd [1]: 1.447 ± 0.006 µM
change of KD compared with AcerOBP11-wt [1]: did not observe significant increases
IC50 [2]: 6.09 ± 0.156 µM
Kd [2]: 1.48 ± 0.045 µM
IC50 [3]: 5.57 ± 0.114 µM
Kd [3]: 1.91 ± 0.039 µM

CC(=O)OCCC(C)C [Isoamyl acetate]
Kd (recombinant AcerOBP11; [6]): 3.3 µM
IC50 (recombinant AcerOBP11; [7]): 16.88 ± 0.144 µM
IC50 (recombinant AcerOBP11; [8]): 24 µM
Kd [1, 9]: 2.61 ± 0.063 µM
IC50 [1, 10]: 10.7 ± 0.26 µM
change of KD compared with AcerOBP11-wt [1]: did not observe significant increases
Kd [2, 11]: 4.544 ± 0.022 µM
IC50 [2, 12]: 17.75 ± 0.144 µM
change of KD compared with AcerOBP11-wt ([2]; AcerOBP11m-Ile97 vs wild-type): significantly increased
Kd [3, 13]: 3.99 ± 0.221 µM
IC50 [3, 14]: 12.9 ± 0.697 µM
increase of KD compared with AcerOBP11-wt ([3]; AcerOBP11m-Ile140 vs wild-type, p < 0.01): 1.8 fold

C=CC(C)(O)CCC=C(C)C (stereo not drawn) [Linalool]
IC50 (recombinant AcerOBP11): 55 µM
Kd (recombinant AcerOBP11): 9.53 µM

CCCCCCCC/C=C\CCCCCCCC(=O)OC [Methyl oleate]
relative fluorescence of 1-NPN (recombinant AcerOBP11; ligand 1-11 μmol/L): ≥ 50%

CCCCCCCCCCCCCCCC(=O)OC [Methyl palmitate]
Kd (recombinant AcerOBP11; [4]): 4.38 µM
IC50 (recombinant AcerOBP11; [5]): 21 µM

COC(=O)c1ccccc1O [Methyl salicylate]
IC50 (recombinant AcerOBP11): 40 µM
Kd (recombinant AcerOBP11): 6.83 µM

C=CC(=C)CCC=C(C)C [Myrcene]
Kd (recombinant AcerOBP11; [4]): 10.7 µM
IC50 (recombinant AcerOBP11; [5]): 45.7 µM

CCCCCCCCCCCCCC(=O)O [Myristic acid]
IC50 (recombinant AcerOBP11): 45.2 µM
Kd (recombinant AcerOBP11): 7.71 µM

CC(C)=CCC/C(C)=C\CO [Nerol]
Kd (recombinant AcerOBP11; [6]): 6.13 µM
IC50 (recombinant AcerOBP11; [8]): 33.9 µM

O=CCc1ccccc1 [Phenylacetaldehyde]
IC50 (recombinant AcerOBP11): 21.6 µM
Kd (recombinant AcerOBP11): 3.75 µM

CCCCCCO [n-hexanol]
Kd (recombinant AcerOBP11; [15]): 2.79 ± 0.104 µM
Kd (recombinant AcerOBP11; [6]): 2.79 µM
IC50 (recombinant AcerOBP11; [7]): 21.1 ± 0.785 µM
Kd [1, 9]: 2.321 ± 0.02 µM
IC50 [1, 10]: 14.26 ± 0.124 µM
Kd [2, 11]: 10.1 ± 0.456 µM
IC50 [2, 12]: 33.4 ± 0.785 µM
change of KD compared with AcerOBP11-wt ([2]; AcerOBP11m-Ile97 vs wild-type): significantly increased
increase of KD compared with AcerOBP11-wt ([2]; AcerOBP11m-Ile97 vs wild-type, p < 0.01): 3.60 fold
Kd [3, 13]: 3.19 ± 0.076 µM
IC50 [3, 14]: 11.8 ± 0.283 µM

CC(=O)/C=C/C1=C(C)CCCC1(C)C [β- Ionone]
Kd (recombinant AcerOBP11; [6]): 3.79 µM
IC50 (recombinant AcerOBP11; [8]): 21.1 µM
Kd (ASP2): 5.14 µM
Kd (ASP1): 14.7 µM

Source: paper PMC5924804, “Various Bee Pheromones Binding Affinity, Exclusive Chemosensillar Localization, and Key Amino Acid Sites Reveal the Distinctive Characteristics of Odorant-Binding Protein 11 in the Eastern Honey Bee, Apis cerana” (Frontiers in Physiology, 2018)
